Laboratory results reported in ChEMBL document CHEMBL1201862, “PubChem BioAssay data set” (2004).
Activity calls are given as the source filed them.

Key:
Streptokinase A = molecular target: T1, Streptokinase A (Streptococcus pyogenes serotype M1, UniProt P10520); experiment: S. pyogenes streptokinase expression inhibitors, potency, dose response, plasminogen activation absorbance, OD405 (AID 1914); assay type: functional, Streptococcus pyogenes M1 GAS;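 further: secreted streptokinase activity via plasminogen activation per viability signal from cell pellet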
T1 sequence (P10520 whole entry): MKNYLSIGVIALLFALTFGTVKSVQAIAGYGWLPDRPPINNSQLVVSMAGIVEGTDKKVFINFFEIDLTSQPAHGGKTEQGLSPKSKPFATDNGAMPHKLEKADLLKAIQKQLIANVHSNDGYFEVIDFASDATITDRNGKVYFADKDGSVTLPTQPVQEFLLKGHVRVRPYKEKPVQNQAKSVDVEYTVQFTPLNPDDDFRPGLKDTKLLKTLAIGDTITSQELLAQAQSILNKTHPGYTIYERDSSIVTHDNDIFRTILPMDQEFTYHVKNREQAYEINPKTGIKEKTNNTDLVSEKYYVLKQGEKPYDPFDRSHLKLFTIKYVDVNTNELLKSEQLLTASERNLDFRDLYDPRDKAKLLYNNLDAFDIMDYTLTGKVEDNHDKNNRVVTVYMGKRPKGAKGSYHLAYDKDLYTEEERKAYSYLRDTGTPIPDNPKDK

Streptococcus = experiment: Group A Streptococcus viability loss, dose response, counter-screen for streptokinase expression inhibitor project, luminescence, BacTiterGlo (AID 1915); assay type: functional, organism-based;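 further: potency for reduction of bacterial viability or growth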
Bcl-2-related protein A1 = molecular target: T2, Bcl-2-related protein A1 (Mus musculus, UniProt Q07440); assay type: functional;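 further: confirmatory dose–response counterscreen on Bfl-1, used to check hits from a UBC13 polyubiquitin inhibitor campaign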
T2 sequence (Q07440 whole entry): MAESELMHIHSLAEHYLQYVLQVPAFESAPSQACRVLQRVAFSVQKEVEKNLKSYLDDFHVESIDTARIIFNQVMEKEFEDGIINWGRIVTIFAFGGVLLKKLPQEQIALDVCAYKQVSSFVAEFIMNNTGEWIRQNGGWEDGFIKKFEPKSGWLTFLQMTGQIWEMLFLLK

[1] = molecular target: T3, Ubiquitin-conjugating enzyme E2 N (Homo sapiens, UniProt P61088); assay type: functional
T3 sequence (P61088 whole entry): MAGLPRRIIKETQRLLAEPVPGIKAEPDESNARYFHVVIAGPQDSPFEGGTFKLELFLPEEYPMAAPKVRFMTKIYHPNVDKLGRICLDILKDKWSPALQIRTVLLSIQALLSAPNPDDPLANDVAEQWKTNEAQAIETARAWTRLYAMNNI

CAAX prenyl protease 2 = molecular target: T4, CAAX prenyl protease 2 (Saccharomyces cerevisiae S288c, UniProt Q03530); assay type: biochemical
T4 sequence (Q03530 whole entry): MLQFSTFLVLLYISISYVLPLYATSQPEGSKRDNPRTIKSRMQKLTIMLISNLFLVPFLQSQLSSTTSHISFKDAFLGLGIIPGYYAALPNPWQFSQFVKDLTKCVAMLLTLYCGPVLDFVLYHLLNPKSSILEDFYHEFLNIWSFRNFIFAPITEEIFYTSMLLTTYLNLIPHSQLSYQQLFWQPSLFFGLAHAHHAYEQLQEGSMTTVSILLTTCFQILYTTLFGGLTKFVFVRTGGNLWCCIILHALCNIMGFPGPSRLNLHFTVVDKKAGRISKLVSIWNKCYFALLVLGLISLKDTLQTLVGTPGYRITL

[2] = molecular target: T3, Ubiquitin-conjugating enzyme E2 N; assay type: functional; remark: listed apart in the source
CAAX prenyl protease 1 = CAAX prenyl protease 1 (Saccharomyces cerevisiae S288c, UniProt P47154); experiment: Ste24 protease inhibitors, dose response, biochemical, S. cerevisiae, plate reader, cherry-pick (AID 488815)
[3] = molecular target: Heat shock protein HSP 90-alpha (Homo sapiens, UniProt P07900); assay type: functional, organism-based
INS1 = experiment: beta cell apoptosis inhibitors, cytokine rescue, dose response, luminescence, retest (AID 449756); assay type: functional, cell-based; conditions: Rattus norvegicus;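 further: cell death triggered by IL-1 beta plus TNF-alpha plus IFN-gamma mixture; protective hits raise ATP signal compared with cytokine alone wells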
HEK293 = experiment: cells; assay type: functional, cell-based; conditions: Homo sapiens;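 further: NOD2 overexpressing HEK293T cells carrying an NF-kB luciferase reporter; compound exposure roughly 14 hours overnight then 1 hour with resazurin; potency is for loss of cell viability meaning cytotoxicity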
[4] = molecular target: Neurotensin receptor type 1 (Homo sapiens, UniProt P30989); assay type: functional;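 further: Image-based confirmatory dose-response assay measuring agonist activity at NTR1; NTR1-expressing U2OS osteosarcoma cells imaged for beta-arrestin GFP spot formation; agonist potency where compounds increase beta-arrestin recruitment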
Hexokinase HKDC1 = molecular target: T5, Hexokinase HKDC1 (Homo sapiens, UniProt Q2TB90); experiment: HKDC1 hexokinase inhibitors, dose response, biochemical, W721R variant (AID 504729); assay type: functional
T5 sequence (Q2TB90 whole entry): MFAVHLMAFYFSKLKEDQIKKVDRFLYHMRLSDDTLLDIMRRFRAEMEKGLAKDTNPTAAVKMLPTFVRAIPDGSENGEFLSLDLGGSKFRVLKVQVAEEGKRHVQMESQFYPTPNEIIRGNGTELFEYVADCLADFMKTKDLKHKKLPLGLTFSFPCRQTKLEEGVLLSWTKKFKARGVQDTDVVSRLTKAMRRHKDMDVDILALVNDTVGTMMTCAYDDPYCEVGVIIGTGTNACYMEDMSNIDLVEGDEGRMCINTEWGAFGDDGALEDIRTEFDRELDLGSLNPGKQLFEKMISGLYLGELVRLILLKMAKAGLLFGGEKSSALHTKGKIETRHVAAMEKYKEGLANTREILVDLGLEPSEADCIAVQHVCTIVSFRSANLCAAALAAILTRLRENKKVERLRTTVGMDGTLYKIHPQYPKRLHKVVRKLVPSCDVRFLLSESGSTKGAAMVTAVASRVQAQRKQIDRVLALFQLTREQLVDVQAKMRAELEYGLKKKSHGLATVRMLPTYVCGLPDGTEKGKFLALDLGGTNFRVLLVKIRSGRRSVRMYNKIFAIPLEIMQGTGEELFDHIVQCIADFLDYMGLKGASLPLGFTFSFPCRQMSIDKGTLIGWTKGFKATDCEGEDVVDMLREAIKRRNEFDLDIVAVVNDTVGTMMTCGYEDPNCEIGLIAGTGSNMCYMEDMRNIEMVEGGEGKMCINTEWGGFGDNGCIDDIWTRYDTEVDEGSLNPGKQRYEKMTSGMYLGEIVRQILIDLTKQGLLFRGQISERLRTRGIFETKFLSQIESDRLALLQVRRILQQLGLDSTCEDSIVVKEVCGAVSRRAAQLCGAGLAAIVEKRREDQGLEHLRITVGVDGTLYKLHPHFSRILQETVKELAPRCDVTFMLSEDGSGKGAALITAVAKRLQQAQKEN

Fatty acid synthase = Fatty acid synthase (Homo sapiens, UniProt P49327); experiment: FAS thioesterase domain inhibitors, dose response, biochemical, kinetic fluorescence intensity (AID 624326); assay type: functional;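 further: rate of fluorescence rise from hydrolysis of a fluorogenic O-methyl fluorescein ester substrate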
[5] = non-specific cell cytotoxicity, dose response, cytotoxicity control for PAX8 inhibitor project, plate reader, dry powder samples (AID 743021); assay type: functional, cell-based

Sequence of Neurotensin receptor type 1 (P30989 whole entry): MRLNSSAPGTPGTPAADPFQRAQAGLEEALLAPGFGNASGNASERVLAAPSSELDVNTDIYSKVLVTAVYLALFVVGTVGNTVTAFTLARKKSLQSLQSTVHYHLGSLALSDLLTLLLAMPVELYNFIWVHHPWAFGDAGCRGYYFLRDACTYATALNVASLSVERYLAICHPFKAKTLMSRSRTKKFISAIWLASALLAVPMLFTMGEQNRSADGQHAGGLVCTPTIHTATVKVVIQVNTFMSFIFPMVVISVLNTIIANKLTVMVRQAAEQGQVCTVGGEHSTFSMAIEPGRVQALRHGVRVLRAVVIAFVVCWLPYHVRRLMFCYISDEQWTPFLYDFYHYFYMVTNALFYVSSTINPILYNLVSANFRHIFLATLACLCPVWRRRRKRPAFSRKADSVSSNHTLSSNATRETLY
Sequence of CAAX prenyl protease 1 (P47154 whole entry): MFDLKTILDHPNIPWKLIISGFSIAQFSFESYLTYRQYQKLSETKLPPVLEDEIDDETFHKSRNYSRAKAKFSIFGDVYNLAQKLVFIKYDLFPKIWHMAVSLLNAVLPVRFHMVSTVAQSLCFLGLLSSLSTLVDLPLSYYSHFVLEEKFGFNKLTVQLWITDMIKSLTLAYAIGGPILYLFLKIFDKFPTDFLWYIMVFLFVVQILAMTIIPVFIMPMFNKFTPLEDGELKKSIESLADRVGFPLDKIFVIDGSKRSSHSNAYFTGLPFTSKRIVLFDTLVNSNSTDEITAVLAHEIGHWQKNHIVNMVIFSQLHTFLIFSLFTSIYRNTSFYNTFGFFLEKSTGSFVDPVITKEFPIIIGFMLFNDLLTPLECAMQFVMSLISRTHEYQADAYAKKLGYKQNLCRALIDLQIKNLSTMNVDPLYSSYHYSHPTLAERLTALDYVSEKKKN
Sequence of Fatty acid synthase (P49327 whole entry, the tested form may be a part): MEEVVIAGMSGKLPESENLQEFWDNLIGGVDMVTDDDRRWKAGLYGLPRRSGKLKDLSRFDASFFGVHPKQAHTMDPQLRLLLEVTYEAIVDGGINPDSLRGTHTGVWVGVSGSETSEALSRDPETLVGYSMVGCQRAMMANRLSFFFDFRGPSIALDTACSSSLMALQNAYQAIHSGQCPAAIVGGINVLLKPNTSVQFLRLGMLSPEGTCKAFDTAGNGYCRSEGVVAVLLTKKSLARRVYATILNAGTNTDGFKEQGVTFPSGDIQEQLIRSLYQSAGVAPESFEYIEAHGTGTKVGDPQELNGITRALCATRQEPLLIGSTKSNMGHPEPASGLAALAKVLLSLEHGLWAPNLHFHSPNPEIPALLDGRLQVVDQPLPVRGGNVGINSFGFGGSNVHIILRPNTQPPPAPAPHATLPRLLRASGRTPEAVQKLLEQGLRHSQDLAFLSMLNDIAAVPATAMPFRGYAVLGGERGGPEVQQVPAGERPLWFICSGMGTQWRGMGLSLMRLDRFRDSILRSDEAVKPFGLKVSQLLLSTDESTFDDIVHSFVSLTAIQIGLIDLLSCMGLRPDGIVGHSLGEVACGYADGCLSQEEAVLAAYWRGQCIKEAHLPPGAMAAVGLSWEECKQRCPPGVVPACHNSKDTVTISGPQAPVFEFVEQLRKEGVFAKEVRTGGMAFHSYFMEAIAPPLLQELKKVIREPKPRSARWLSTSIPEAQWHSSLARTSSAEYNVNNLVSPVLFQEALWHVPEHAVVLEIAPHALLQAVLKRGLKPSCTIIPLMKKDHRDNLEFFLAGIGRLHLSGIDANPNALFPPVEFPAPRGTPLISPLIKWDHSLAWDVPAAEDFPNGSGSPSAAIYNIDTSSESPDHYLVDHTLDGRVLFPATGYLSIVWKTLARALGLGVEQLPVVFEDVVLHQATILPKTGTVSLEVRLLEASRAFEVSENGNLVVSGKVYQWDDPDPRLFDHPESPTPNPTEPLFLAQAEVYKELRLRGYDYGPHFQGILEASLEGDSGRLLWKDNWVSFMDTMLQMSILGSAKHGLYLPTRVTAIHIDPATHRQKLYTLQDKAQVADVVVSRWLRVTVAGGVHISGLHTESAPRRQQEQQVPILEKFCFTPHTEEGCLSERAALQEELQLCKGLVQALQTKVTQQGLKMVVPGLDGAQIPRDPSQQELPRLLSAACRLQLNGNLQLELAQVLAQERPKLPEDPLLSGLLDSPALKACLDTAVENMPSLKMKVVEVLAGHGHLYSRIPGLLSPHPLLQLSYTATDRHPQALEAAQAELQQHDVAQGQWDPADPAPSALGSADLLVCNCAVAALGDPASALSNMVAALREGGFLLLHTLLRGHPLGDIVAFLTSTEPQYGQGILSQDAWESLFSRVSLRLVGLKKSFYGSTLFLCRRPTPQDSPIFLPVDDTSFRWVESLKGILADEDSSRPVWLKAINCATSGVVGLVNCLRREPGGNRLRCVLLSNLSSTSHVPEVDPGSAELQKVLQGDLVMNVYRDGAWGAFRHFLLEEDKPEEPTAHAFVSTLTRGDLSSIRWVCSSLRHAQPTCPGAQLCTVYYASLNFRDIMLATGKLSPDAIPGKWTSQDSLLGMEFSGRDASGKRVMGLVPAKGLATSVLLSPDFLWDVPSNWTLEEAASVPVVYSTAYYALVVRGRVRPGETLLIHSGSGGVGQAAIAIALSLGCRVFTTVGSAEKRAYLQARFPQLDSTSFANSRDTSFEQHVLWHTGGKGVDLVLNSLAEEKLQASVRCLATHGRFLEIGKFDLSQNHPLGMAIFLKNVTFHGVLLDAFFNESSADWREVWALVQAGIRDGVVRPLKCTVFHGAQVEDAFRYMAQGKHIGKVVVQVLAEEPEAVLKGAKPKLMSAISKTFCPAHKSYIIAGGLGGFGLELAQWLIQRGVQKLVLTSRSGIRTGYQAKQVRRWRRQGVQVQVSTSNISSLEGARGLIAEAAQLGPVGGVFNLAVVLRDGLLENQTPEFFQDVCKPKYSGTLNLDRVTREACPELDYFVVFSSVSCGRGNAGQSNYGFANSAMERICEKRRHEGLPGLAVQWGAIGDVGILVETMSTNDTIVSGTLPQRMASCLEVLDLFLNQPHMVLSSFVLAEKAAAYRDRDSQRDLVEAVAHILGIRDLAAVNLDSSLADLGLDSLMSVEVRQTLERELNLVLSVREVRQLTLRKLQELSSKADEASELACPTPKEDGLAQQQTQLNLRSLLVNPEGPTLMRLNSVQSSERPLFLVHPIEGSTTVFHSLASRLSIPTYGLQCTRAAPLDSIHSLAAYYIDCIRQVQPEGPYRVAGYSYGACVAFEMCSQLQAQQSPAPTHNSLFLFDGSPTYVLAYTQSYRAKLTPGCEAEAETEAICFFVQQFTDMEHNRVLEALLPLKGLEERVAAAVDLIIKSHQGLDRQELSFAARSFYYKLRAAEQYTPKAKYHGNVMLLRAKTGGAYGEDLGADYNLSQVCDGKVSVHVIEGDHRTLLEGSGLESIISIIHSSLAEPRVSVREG

| SMILES | EC50 (Streptokinase A) | EC50 (Streptococcus) | IC50 (Bcl-2-related protein A1) | IC50 [1] | AC50 (CAAX prenyl protease 2) | IC50 [2] | AC50 (CAAX prenyl protease 1) | AC50 [3] | AC50 (INS1) | IC50 (HEK293) | EC50 [4] | IC50 (Hexokinase HKDC1) | IC50 (Fatty acid synthase) | AC50 [5] |
| --- | --- | --- | --- | --- | --- | --- | --- | --- | --- | --- | --- | --- | --- | --- |
| CCCCCCCCCC[N+](C)(C)CC/C=C1/c2ccccc2Sc2ccc(Cl)cc21 | 6.63 µM (active) | 5.62 µM (active) | 8.08 µM (active) | 4.61 µM (active) | 4.96 µM (active) | 3.77 µM (active) | 6.47 µM (active) | 8.12 µM (active) | 5.67 µM (active) |  |  |  |  |  |
| O=C(NCCc1ccccc1)C(c1cccs1)N(C(=O)CCl)c1ccc(Cl)cc1 (centres undefined) |  |  |  |  |  |  |  |  |  | > 20 µM (inactive) | 2.5 µM (active) | 35.7 µM (inactive) | 10.3 µM (active) | 6.13 µM (active) |
| COc1cc(/C=C/c2cc[n+](C)cc2)ccc1OCC(=O)Nc1ccc(Cl)c(Cl)c1 | > 150 µM (not active) | 12.9 µM (active) | > 20 µM (inactive) | 7.13 µM (active) |  | 7.74 µM (active) |  |  |  |  |  |  |  |  |
